Data as given in patent publication US7553821B2, “Methods for selectively modulating survivin apoptosis pathways” (Yale University, priority 2000, dated 2009).

Assays:
[1] = tested on: YUSAC-2 human melanoma cells; test: Melanoma tumor formation in CB.17 immunodeficient mice; assay type: in vivo, CB.17 SCID/beige mice
Protocol: To determine whether interference with survivin function by regulated expression of survivin antagonists could block melanoma tumor formation in CB.17 immunodeficient mice, mice were monitored for 8 weeks following subcutaneous injection, and tumor measurements taken at 4- and 8-week time points (Table I). It was determined that YUSAC-2 cells consistently form localized tumors in 6 to 8-week-old female CB.17 SCID/beige mice (Taconic Farms, Germantown, N.Y.) approximately 3-4 weeks following subcutaneous injection of 1-3×10^6 cells. Animals were monitored for up to 4 months, and neither mortality nor gross metastasis is associated with increasing tumor size (up to 5000 mm^3) or ulceration. One day prior to injection, mice were shaved on the right flank, and the regular drinking water was replaced with 5% sucrose alone or containing […] tet as described (Shockett et al., 1995). Cells were harvested in log-phase growth, washed twice in PBS, resuspended in PBS (12×10^6 cells per ml) and injected (0.25 ml, 3×10^6 cells) subcutaneously. The drinking water was changed every 2-3 days. Tumor size was determined by the product of two perpendicular diameters and the height above the skin surface.
Table 1. Summary of tumor formation for all animals. CB.17 mice were injected with cells and tet was added or withheld from the drinking water. […]

caspase-9 [2] = target: T1, caspase-9 (Homo sapiens, UniProt P55211); test: Co-immunoprecipitation of survivin and caspase-9 from HeLa cells; assay type: binding; conditions: viable HeLa cells 24 h after transfection
T1 construct: immunoprecipitated with an antibody to HA followed by Western blotting with an antibody to caspase-9; endogenous in cells; host or cells: HeLa
T1 sequence (P55211 1-416): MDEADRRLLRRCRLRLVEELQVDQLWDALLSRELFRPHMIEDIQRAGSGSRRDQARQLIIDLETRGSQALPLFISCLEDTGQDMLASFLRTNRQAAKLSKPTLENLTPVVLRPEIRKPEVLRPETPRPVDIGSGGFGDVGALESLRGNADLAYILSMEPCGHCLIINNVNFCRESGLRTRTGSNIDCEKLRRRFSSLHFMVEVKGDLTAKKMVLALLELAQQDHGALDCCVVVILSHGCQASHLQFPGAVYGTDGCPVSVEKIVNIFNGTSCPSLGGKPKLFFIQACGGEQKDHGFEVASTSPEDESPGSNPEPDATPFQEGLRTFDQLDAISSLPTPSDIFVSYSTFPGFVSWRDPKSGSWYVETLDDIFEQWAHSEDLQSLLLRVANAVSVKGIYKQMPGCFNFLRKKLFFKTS
Protocol: (§1) Asynchronously growing HeLa cells were transfected with HA-wild type survivin (WT) or HA-survivin(T34A) (T34A), detergent-solubilized after 24 h and immunoprecipitated with an antibody to HA followed by Western blotting with an antibody to caspase-9. Arrow, position of 46 kDa proform caspase-9.
(§2) HeLa cells were transfected with the indicated HA-constructs, synchronized to the G1/S boundary by a 16-h treatment with thymidine and released. Aliquots of the various cultures were immunoprecipitated at the indicated time intervals with an antibody to HA, and immunoblotted with antibodies to caspase-9 or HA. P, pellet; S, supernatant. For all panels, molecular weight markers are indicated on the left.
(§3) Transfection experiments. For transient transfection, HeLa cells in C-6 tissue culture plates (Costar, Cambridge, Mass.) at ˜60-70% confluency, were incubated in 1 ml of serum-free OptiMEM medium (Life Technologies, Gaithersburg, Md.) for 20 min, and transfected with 2.5 μg of the various plasmid cDNAs plus 9 μl Lipofectamine (Life Technologies). After a 5 h incubation at 37° C., the mixture was aspirated and substituted with complete growth medium for 48-72 h. […] Gated GFP-expressing cells were analyzed for DNA content by flow cytometry on a FACSort (Becton Dickinson, San Jose, Calif.) using a Cell Quest software. […]

caspase-9 [3] = test: as above; assay type: binding; conditions: synchronized HeLa cells entering mitosis 12 h after thymidine release
Protocol: as §1, §2, §3

survivin(T34A): dominant-negative, non-phosphorylatable survivin mutant with Thr34→Ala substitution, expressed from transfected cDNA (also HA- or GFP-tagged)
Tumor size (mean ± standard deviation, only mice with tumors) ([1]; 8 Weeks, F5.C4 cells s.c., tet absent): 278 ± 116 mm^3 | size and onset of tumors in tet-deprived animals compared to animals given tet ([1]; F5.C4 cells, two tet-deprived animals with tumors): considerably smaller in size and appeared with a markedly delayed onset | caspase-9 associated with HA immunoprecipitates by Western blotting (caspase-9 [2]): presence of associated ˜46 kDa proform caspase-9 | caspase-9 associated with HA immunoprecipitates by Western blotting (caspase-9 [3]): did not contain associated proform or active caspase-9 bands
